Experiments:
rabbit eye = details: in vivo
Method: Pupils were fully dilated before implantation with 1 drop each of cyclopentolate hydrochloride 1% (Bausch & Lomb, Rochester, N.Y.) and phenylephrine hydrochloride 5% (Bausch & Lomb). […] A periocular surgical prep was performed by swabbing the area using a 1:10 dilution of povidone iodine in saline. The surface of the eye was prepped with a 1:20 dilution of povidone iodine in saline. The rabbit was positioned under the operating microscope and draped. A wire lid speculum was placed.
A two-port core vitrectomy was performed, with illumination provided by the operating microscope (Carl Zeiss Ophthalmic Systems, Inc.). […] The feathered shape and semi-rigid structure of the implant allowed easy insertion. […] At the conclusion of surgery, a subconjunctival injection of antibiotic, 0.1 cc of 40 mg/ml gentamycin (Phoenix Scientific, St. Joseph, Mo.) and 0.1 cc of 2 mg/ml dexamethasone (Phoenix Scientific) was administered away from the surgery site. […]
Complete ophthalmic examinations using indirect ophthalmoscopy and a 20-diopter lens (Vantage Indirect Ophthalmoscope, Keeler Ltd., Windsor, England) were performed at baseline and 1, 2, and 4 weeks postoperatively. […] The lens was inspected for cataract formation and further evaluated with respect to any lens touch that may have occurred during the implantation.

[1] = In vivo elution: TA by HPLC in eye tissues, aqueous and blood after subretinal PCL/TA 60:40 implant; details: four weeks after subretinal PCL/TA 60:40 implant, rabbit
[2] = three days following an injection; cited from earlier work

Q: Which “biocompatibility / toxicity, clinical examinations” value (rabbit eye) does the source give for `CO[C@H]1C[C@@H]2CC[C@@H](C)[C@@](O)(O2)C(=O)C(=O)N2CCCC[C@H]2C(=O)O[C@H]([C@H](C)C[C@@H]2CC[C@@H](O)[C@H](OC)C2)CC(=O)[C@H](C)/C=C(\C)[C@@H](O)[C@@H](OC)C(=O)[C@H](C)C[C@H](C)/C=C/C=C/C=C/1C` [rapamycin] here?
A: The value was “may be toxic to the rabbit eye at the current doses”.

Q: What does the source list for `CC1(C)O[C@@H]2C[C@H]3[C@@H]4CCC5=CC(=O)C=C[C@]5(C)[C@@]4(F)[C@@H](O)C[C@]3(C)[C@]2(C(=O)CO)O1` [TA, Triamcinolone acetonide]?
A: TA in the anterior structures (HPLC) [1]: not detected; TA in the blood (HPLC) [1]: not detected; TA in the posterior tissue samples (HPLC) ([1]; qualitative, FIG. 9): confirmed the presence

Q: For `C[C@]12C=CC(=O)C=C1CC[C@H]1[C@@H]3C[C@@H](O)[C@](O)(C(=O)CO)[C@@]3(C)C[C@H](O)[C@@]12F` [triamcinolone], which “share of the triamcinolone present in the vitreous associated with other tissues including the retina, pigment epithelium, and sclera” value [2] is on record?
A: The value was “less than 1%”.
